Laboratory results reported in ChEMBL document CHEMBL4190257, “Discovery of phenylsulfonyl acetic acid derivatives with improved efficacy and safety as potent free fatty acid receptor 1 agonists for the treatment of type 2 diabetes” (Eur J Med Chem, 2017).
Calls of active or inactive are those of the source. No cut-off for these calls is given here.

Columns and labels:
[1] = target: T1, Free fatty acid receptor 1 (Homo sapiens, UniProt O14842); experiment: Agonist activity at human FFA1 receptor expressed in CHO cells assessed as increase in intracellular calcium flux by Fluo 4AM dye-based FLIPR assay; type: functional, cell-based
T1 sequence (O14842 whole entry): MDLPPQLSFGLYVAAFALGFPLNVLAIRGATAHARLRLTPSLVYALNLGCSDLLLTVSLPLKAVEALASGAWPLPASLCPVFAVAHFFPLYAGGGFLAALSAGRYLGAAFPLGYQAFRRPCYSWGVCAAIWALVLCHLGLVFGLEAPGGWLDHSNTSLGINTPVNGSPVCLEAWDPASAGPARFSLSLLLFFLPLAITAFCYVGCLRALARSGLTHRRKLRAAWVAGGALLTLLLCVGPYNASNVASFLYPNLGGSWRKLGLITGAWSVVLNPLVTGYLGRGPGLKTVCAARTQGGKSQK

[2] = target: T1, Free fatty acid receptor 1; experiment: Agonist activity at human FFA1 receptor expressed in CHO cells assessed as increase in intracellular calcium flux at 10 uM by Fluo 4AM dye-based FLIPR assay relative to TAK-875; type: functional, cell-based
[3] = Octanol/phosphate buffer distribution coefficient, log D of the compound at 100 uM at pH 7.4 after 24 hrs by shake flask method; type: physicochemical
HepG2 = experiment: Apoptotic cytotoxicity in human HepG2 cells assessed as caspase-3/7 activity at 30 uM after 24 hrs by caspase-glo-3/7 assay relative to staurosporine; type: cell-based; conditions: hepg2, 24 h
[4] = Clearance in fasted Sprague-Dawley rat at 10 mg/kg, po administered as single dose measured up to 24 hrs post dose by LC-PDA-MS/MS analysis; type: ADME, organism-based; conditions: in vivo
[5] = Cmax in fasted Sprague-Dawley rat at 10 mg/kg, po administered as single dose measured up to 24 hrs post dose by LC-PDA-MS/MS analysis; type: ADME, organism-based; set-up: dose 10 mg/kg, route oral; conditions: in vivo
[6] = AUC (0 to 24 hrs) in fasted Sprague-Dawley rat at 10 mg/kg, po administered as single dose measured up to 24 hrs post dose by LC-PDA-MS/MS analysis; type: ADME, organism-based; set-up: time < 24 hr, dose 10 mg/kg, route oral; conditions: in vivo
[7] = Half life in fasted Sprague-Dawley rat at 10 mg/kg, po administered as single dose measured up to 24 hrs post dose by LC-PDA-MS/MS analysis; type: ADME, organism-based; conditions: in vivo
[8] = Drug metabolism in Sprague-Dawley rat plasma assessed as beta-oxidation metabolite formation at 10 mg/kg, po measured up to 24 hrs post dose by LC-PDA-MS/MS analysis; type: ADME, organism-based; conditions: in vivo
[9] = Drug metabolism in Sprague-Dawley rat plasma assessed as cytochrome P450-mediated 2'-chlorobiphenyl-3-carboxylic acid formation at 10 mg/kg, po measured up to 24 hrs post dose by LC-PDA-MS/MS analysis; type: ADME, organism-based; conditions: in vivo
[10] = Drug metabolism in Sprague-Dawley rat plasma assessed as 2-(2-(4-((2'-chlorobiphenyl-3-yl)methoxy)phenylsulfonyl)acetamido)ethanesulfonic acid formation at 10 mg/kg, po measured up to 24 hrs post dose by LC-PDA-MS/MS analysis; type: ADME, organism-based; conditions: in vivo
[11] = Drug metabolism in Sprague-Dawley rat plasma assessed as (2S,3R,4S,5S,6R)-3,4,5-trihydroxy-6-(hydroxymethyl)tetrahydro-2H-pyran-2-yl 2-(4-((2'-chlorobiphenyl-3-yl)methoxy)phenylsulfonyl)acetate formation at 10 mg/kg, po measured up to 24 hrs post dose by LC-PDA-MS/MS analysis; type: ADME, organism-based; conditions: in vivo
Rattus norvegicus [12] = experiment: Antidiabetic activity in po dosed Sprague-Dawley rat assessed as reduction in plasma glucose excursion administered as single dose followed by subsequent glucose challenge at 60 mins post administration measured up to 120 mins post dose by OGTT method; type: functional, organism-based
Rattus norvegicus [13] = experiment: Antidiabetic activity in po dosed Sprague-Dawley rat assessed as increase in insulin secretion administered as single dose followed by subsequent glucose challenge at 60 mins post administration measured up to 120 mins post dose by ELISA; type: functional, organism-based
Rattus norvegicus [14] = experiment: Antidiabetic activity in po dosed Sprague-Dawley rat assessed as reduction in blood glucose AUC (0 to 120 mins) administered as single dose followed by subsequent glucose challenge at 60 mins post administration by OGTT method; type: functional
Rattus norvegicus [15] = experiment: Antidiabetic activity in po dosed Sprague-Dawley rat assessed as increase in blood insulin AUC (0 to 120 mins) administered as single dose followed by subsequent glucose challenge at 60 mins post administration by ELISA method; type: functional
Mus musculus [16] = experiment: Antihyperglycemic activity in high fat diet fed/streptozotocin-induced type 2 diabetic C57BL/6 mouse model assessed as reduction in plasma glucose AUC (0 to 120 mins) at 20 mg/kg, po administered as single dose followed by subsequent glucose challenge at 60 mins post administration by OGTT method; type: functional, organism-based
Rattus norvegicus [17] = experiment: Hypoglycemic effect in fasting Sprague-Dawley rat at 30 mg/kg, po measured up to 180 mins post dose; type: ADME, organism-based; conditions: in vivo, 3 h
Mus musculus [18] = experiment: Hepatotoxicity in ICR mouse assessed as serum ALT level at 30 mg/kg, dosed daily via oral gavage for 30 days (reference value: 34.7 +/- 5.6 IU/L); type: toxicity, organism-based; conditions: in vivo, 720 h
Mus musculus [19] = experiment: Hepatotoxicity in ICR mouse assessed as serum AST level at 30 mg/kg, dosed daily via oral gavage for 30 days (reference value: 135.6 +/- 15.2 IU/L); type: toxicity, organism-based; conditions: in vivo, 720 h
Mus musculus [20] = experiment: Hepatotoxicity in ICR mouse assessed as serum TBIL level at 30 mg/kg, dosed daily via oral gavage for 30 days (reference value: 4.3 +/- 1.3 IU/L); type: toxicity, organism-based; conditions: in vivo, 720 h
Mus musculus [21] = experiment: Renal toxicity in ICR mouse assessed as BUN level at 30 mg/kg, dosed daily via oral gavage for 30 days (reference value: 7.4 +/- 1.6 mmol/L); type: organism-based; conditions: in vivo, 720 h
Mus musculus [22] = experiment: Renal toxicity in ICR mouse assessed as serum creatinine level at 30 mg/kg, dosed daily via oral gavage for 30 days (reference value: 40.9 +/- 2.6 umol/L); type: organism-based; conditions: in vivo, 720 h

O=C(O)CS(=O)(=O)c1ccc(OCc2cccc(-c3ccccc3Cl)c2)cc1
EC50 [1]: 28.8 nM
Efficacy [2]: 115%
logD at 24 h, 100 µM [3]: 2.47
Activity (HepG2): -1.6%
CL/F [4]: 2.57 mL/min/kg
Cmax [5]: 2560 ng/mL
AUC(0-t) at 24 h [6]: 30200 ng·h/mL
half-life [7]: 5.57 h
Drug metabolism [8]: Metabolite_Detected
Drug metabolism [9]: Metabolite_Detected
Drug metabolism [10]: Metabolite_Detected
Drug metabolism [11]: Metabolite_Detected
Activity (Rattus norvegicus [12]): Dose-dependent effect
Activity (Rattus norvegicus [13]): Dose-dependent effect
MEC (Rattus norvegicus [14]): 3 mg/kg
MEC (Rattus norvegicus [15]): 3 mg/kg
Activity (Mus musculus [16]): Active
Activity (Rattus norvegicus [17]): Non-Toxic
Activity (Mus musculus [18]): 35.4 IU/L
Activity (Mus musculus [19]): 128.2 IU/L
Activity (Mus musculus [20]): 4.1 IU/L
Activity (Mus musculus [21]): 7.9 mmol/L
Activity (Mus musculus [22]): 41.4 µmol/L
